Read-outs that look alike come from different tables or passages of the source.
Assays:
[1] = formulation CaCl2 99.9 mg | PG ad 1000 mg
Experimental: The purity of Bendamustine hydrochloride and quantity was determined as follows using a standard curve: • Column type: C18, 100×4.6 mm, 2.6 μm • Mobile phase: A: Water/ACN/TFA=950/50/1 v/v/v • B: Water/ACN/TFA=50/950/1 v/v/v • Column temperature: 25° C. • Autosampler temperature: 25° C. • Flow rate: 1.2 mL/min • Detection wavelength: 234 nm HPLC Gradient
To serve as a direct reference, Bendamustine-HCl was also included in the study.
The following compositions were prepared, filled into type 1 glass vials, closed with a rubber stopper and crimp caped. The closed vials were stored at a temperature of 40° C.
At defined time points samples were taken and analyzed be mans of the RP-HPLC method described in Example 1.

[2] = Stabilizer solubility study (Example 2); type: physicochemical; details: dissolved at 40° C., stored at 2° C.-5° C. over-night
Experimental: The solubility of potential stabilizers to be tested for Bendamustine-HCl liquid formulation was evaluated in polypropylene glycol. The respective chemical was dissolved in water under continuous stirring at 40° C.

[3] = Dose dependent stabilization effect of calcium chloride in PEG400 (Example 8), purity and content by RP-HPLC; details: PEG400/PG and PEG400/ethanol solvent mixtures; 40° C., 8 weeks
Experimental: The organic solvent systems PEG400 with a small amount of alcoholic solvents 1,2-propanediol or ethanol (10% w/w) are to be investigated.
The following Bendamustine containing compositions were prepared. […] The preparations were filled into type 1 glass vials and stoppered with nitrogen overlay. The closed vials were stored at 40° C.:
The purity of Bendamustine-HCl was assessed via RP-HPLC and expressed by relative main peak area. Measurements were carried out in duplicate.
The content of Bendamustine-HCl was assessed via RP-HPLC using a 25 mg/g Bendamustine-HCl standard as reference. Standard solutions were freshly prepared for each individual sampling time point. Standard curves were recorded in duplicate at the beginning and at the end of each sequence. Samples were analyzed in duplicate.

[4] = type: physicochemical; details: in propylene glycol and in PEG400/PG solvent mixture
Experimental: The following Bendamustine containing compositions (25 mg Bendamustine/HCl in 4 g solution) were prepared, filled into type 1 glass vials.

| SMILES | Purity at 40° C. as relative main peak area [%] by RP-HPLC ([1]; 0 days) [%] | Purity at 40° C. as relative main peak area [%] by RP-HPLC ([1]; 7 days) [%] | Purity at 40° C. as relative main peak area [%] by RP-HPLC ([1]; 14 days) [%] | Purity at 40° C. as relative main peak area [%] by RP-HPLC ([1]; 28 days) [%] | Rel. content at 40° C. determined by RP-HPLC using a calibration curve ([1]; 0 days (ref. T=0)) [%] | Rel. content at 40° C. determined by RP-HPLC using a calibration curve ([1]; 7 days (ref. T=0)) [%] | Rel. content at 40° C. determined by RP-HPLC using a calibration curve ([1]; 14 days (ref. T=0)) [%] | Rel. content at 40° C. determined by RP-HPLC using a calibration curve ([1]; 28 days (ref. T=0)) [%] | other results |
| --- | --- | --- | --- | --- | --- | --- | --- | --- | --- |
| Nc1ncn([C@@H]2O[C@H](CO)[C@@H](O)[C@H]2O)c(=O)n1 [Azacitidine] | 100 | 99.8 | 97.7 | 0.0 | – | – | – | – | – |
| Cn1c(CCCC(=O)O)nc2cc(N(CCCl)CCCl)ccc21 [Bendamustine] | 99.7 | 98.9 | 98.4 | – | 100 | 98.9 | 98.4 | 95.3 | – |
| [Br-].[Br-].[Ca+2] [CaBr2] | – | – | – | – | – | – | – | – | Outcome (stabilizer solubility) ([2]; target concentration 0.9 mol/kg): Complete dissolution |
| [Ca+2].[Cl-].[Cl-] [CaCl2, calcium chloride] | – | – | – | – | – | – | – | – | stabilizing effect on Bendamustine (discussion, in words) [3]: clear dose depending stabilizing effect |
| O=NN(CCCl)C(=O)NCCCl [Carmustine] | 95.8 | 2.1 | 2.0 | 1.9 | 100 | 3.6 | 1.3 | 1.3 | – |
| C[N+](C)(C)CCO.[Cl-] [Choline-HCl, choline chloride] | – | – | – | – | – | – | – | – | Outcome (stabilizer solubility) ([2]; target concentration 1.8 mol/kg): Complete dissolution |
| CC(=O)[O-].[K+] [KAc] | – | – | – | – | – | – | – | – | stabilizing effect on Bendamustine (conclusion) [4]: no significant stabilizing effect |
| N[C@@H](Cc1ccc(N(CCCl)CCCl)cc1)C(=O)O [Melphalan] | 99.8 | 98.1 | 97.4 | 95.4 | 100 | 84.6 | 86.2 | 86.5 | – |

From patent US12161631B2, “Liquid pharmaceutical formulation” (PROJECT PHARMACEUTICS GMBH, priority 2018, dated 2024)
